Patent US20260287586A1, “METHODS OF TREATING TKI-RESISTANT AND SDH-DEFICIENT GIST” (priority 2023, published 2026)
Several values for one entry are separate records, joined by “and”; a condition that tells them apart may be missing. Equal entries are not always repeated. Entries after “also recorded” stand apart in the source; their conditions may differ. Where two headings read alike, the source gives them in different places.

Tests used:
[1] = for AUClast: fed, Day 27 steady state, mean (SD)
Experimental: Noncompartmental pharmacokinetic (PK) analysis was conducted using Phoenix WinNonlin software (Version 6.4).

[2] = test system: GIST430 cell-derived xenograft; assay: Imatinib-resistant GIST430 cell-derived xenograft model; format: in vivo; settings: olverembatinib 15 mg/kg every other day for 3 weeks; lisaftoclax 50 mg/kg daily for 3 weeks; alone or combined
Description: Therefore, selective inhibition of BCL-2, aided by TKI-mediated MCL-1 and BCL-XL inhibition, markedly augmented cleavage of caspase-3 and poly(ADP-ribose) polymerase 1 (PARP-1), thus triggering apoptosis and subsequently enhancing antitumor effects.

[3] = Phase 1 trial HQP1351-SJ-0003 of olverembatinib: safety (adverse events, DLT, MTD/RP2D); format: in vivo, human; settings: for Abdominal pain, treatment-emergent AE / Anemia, treatment-emergent AE / Constipation, treatment-emergent AE / Fatigue, treatment-emergent AE / Hyperuricemia, treatment-emergent AE / Increased alanine aminotransferase, treatment-emergent AE / Increased aspartate aminotransferase, treatment-emergent AE / Increased leukocyte count, treatment-emergent AE / Increased neutrophil count, treatment-emergent AE / Pyrexia, treatment-emergent AE: all patients N = 66
Description: The dose escalation aspect of the study enrolled patients with advanced and/or metastatic GIST or other solid tumors that were refractory or had relapsed after treatment with at least one TKI.
Eligible patients were adults (≥18 years) who had advanced and/or metastatic GISTs or other solid tumors confirmed by histology and/or cytology. The definition of SDH-deficient GIST was based on pathological phenotype with negative immunohistochemical staining for SDHB. Also required for study enrollment were Eastern Cooperative Oncology Group performance status (ECOG PS)≤2; and adequate renal, hepatic, cardiac, and bone marrow function. A full list of inclusion and exclusion criteria is in the protocol. Enrollment trends, ongoing review of study data, and evolving knowledge regarding the GIST treatment paradigm informed the study sponsor's medical director's and investigators' decision to analyze the SDH-deficient GIST patient subgroup separately.
Based on encouraging initial activity and favorable tolerability (Qiu, H., et al., J. Clin. Oncol. 40, 11513 (2022)), additional patients with SDH-deficient GIST were enrolled to further explore efficacy, and patients with TKI-naïve SDH-deficient GIST and adolescent patients (aged 12-18 years old) with SDH-deficient GIST were permitted. After data from the dose-escalation part of the study were reviewed during a meeting of the principal investigators and a postmarket dose was recommended to treat CML, all adult patients received 40 mg QOD (determined RP2D dose), and adolescent patients received 20 to 40 mg QOD based on body weight. If body weight was at least 40 kg, patients received 40 mg QOD; if within 30-40 kg, 30 mg QOD; and, if within 20-30 kg, 20 mg QOD. Patients with SDH-deficient malignant paraganglioma who had failed at least one treatment and were without appropriate treatment (as judged by investigators) were also enrolled. Treatment could continue until precluded by toxicity, noncompliance, withdrawal of consent, physician decision, progressive disease, death, or closure of the study. All protocol modifications, including those increasing the number of patients and cohorts in the dose-expansion aspect, are established in the trial protocol version dated May 27, 2022.
Physical examination and adverse events (AEs) were evaluated at each follow-up visit (day −28~day −1 after signed informed consent form); on days 1, 8, 15, and 22 during cycles 1 and 2; and on days 1 and 15 in cycle 3 and all subsequent cycles, up to 30 days after the final dose. All AEs were graded according to the US National Cancer Institute (NCI) Common Terminology Criteria for Adverse Events (CTCAE; version 4.03). Clinical laboratory investigations for routine blood examinations and serum chemistry parameters were performed during every cycle (on day 1); cycles 1 and 2 (on days 8, 15, and 22); and 30 days after the last dose of treatment. Urinalysis, coagulation, cardiac troponin I/T, lipase, amylase, and electrocardiograms were done at baseline; during cycles 1 and 2 (on days 1 and 15); cycle 3, 5, 7, and 9; every 3 cycles after cycle 9 (on day 1); and 14 days after the last dose of treatment. All patients underwent tumor imaging for response assessment via computed tomography or magnetic resonance imaging at screening and every two cycles (8 weeks) until progression or discontinuation. Target and nontarget lesions were assessed per Response Evaluation Criteria in Solid Tumors version 1.1 (RECIST v1.1).
The data cutoff for this analysis was Dec. 27, 2023. The safety population included all patients who received at least one dose of olverembatinib. The SDH-deficient GIST population (prespecified subgroup) included patients in the safety population. MTD was defined as the highest dose level with no more than one dose-limiting toxicity in six patients.

[4] = reported in ≥2 patients, N = 66

Cc1ccc(C(=O)Nc2ccc(CN3CCN(C)CC3)c(C(F)(F)F)c2)cc1C#Cc1cnc2[nH]ncc2c1 [Olverembatinib, olverembatinib]
AUClast ([1]; 20 mg QOD oral, 2 subjects): 228 ± 6.4 h*ng/m
AUClast ([1]; 30 mg QOD oral, 4 subjects): 307 ± 121 h*ng/m
AUClast ([1]; 40 mg QOD oral, 15 subjects): 473 ± 177 h*ng/m
AUClast ([1]; 50 mg QOD oral, 3 subjects): 518 ± 174 h*ng/m
accumulation after multiple-dose administration ([1]; 20 to 50 mg QOD): no significant accumulation
dose proportionality of Cmax and AUClast ([1]; dose range of 20 to 50 mg): approximately dose-proportional increase
Tumor growth inhibition (TGI) rate [2]: 57.6%
dose-limiting toxicities ([3]; 20-50 mg QOD): No dose-limiting toxicities were reported; also recorded: No dose-limiting toxicity was observed
maximum tolerated dose (MTD) ([3]; 20-50 mg QOD): not reached
dose reductions due to TRAEs ([3]; N = 66): dose reductions in two patients
patients who experienced grade ≥3 TRAEs ([3]; N = 66): 13.6%
patients who experienced treatment-related adverse events (TRAEs) ([3]; N = 66): 93.9%
treatment-related serious adverse events ([3]; N = 66): 7.6%
Anemia, treatment-related serious AE ([3]; N = 66, value is N): 2 N (%)
Coronary sclerosis, treatment-related serious AE ([3]; N = 66, value is N): 1 N (%)
Intestinal obstruction, treatment-related serious AE ([3]; N = 66, value is N): 1 N (%)
Leukemoid reaction, treatment-related serious AE ([3]; N = 66, value is N): 1 N (%)
subjects who experienced treatment-emergent adverse events (TEAEs) ([3]; all 66 subjects, oral 20-50 mg QOD): 100.0%
Abdominal pain, treatment-related AE ([3]; any grade, N = 66, value is N): 3 N (%)
Anemia, treatment-related AE ([3]; any grade, N = 66, value is N): 9 N (%)
Constipation, treatment-related AE ([3]; any grade, N = 66, value is N): 23 N (%)
Coronary sclerosis, treatment-related AE ([3]; any grade, N = 66, value is N): 1 N (%)
Decreased neutrophil count, treatment-related AE ([3]; any grade, N = 66, value is N): 3 N (%)
Fatigue, treatment-related AE ([3]; any grade, N = 66, value is N): 18 N (%)
Hypertension, treatment-related AE ([3]; any grade, N = 66, value is N): 3 N (%)
Hyperuricemia, treatment-related AE ([3]; any grade, N = 66, value is N): 12 N (%)
Hypoalbuminemia, treatment-related AE ([3]; any grade, N = 66, value is N): 10 N (%)
Increased CRP, treatment-related AE ([3]; any grade, N = 66, value is N): 11 N (%)
Increased WBC count, treatment-related AE ([3]; any grade, N = 66, value is N): 27 N (%)
Increased alanine aminotransferase, treatment-related AE ([3]; any grade, N = 66, value is N): 20 N (%)
Increased aspartate aminotransferase, treatment-related AE ([3]; any grade, N = 66, value is N): 23 N (%)
Increased creatinine, treatment-related AE ([3]; any grade, N = 66, value is N): 9 N (%)
Increased neutrophil count, treatment-related AE ([3]; any grade, N = 66, value is N): 22 N (%)
Increased platelet count, treatment-related AE ([3]; any grade, N = 66, value is N): 7 N (%)
Intestinal obstruction, treatment-related AE ([3]; any grade, N = 66, value is N): 2 N (%)
Leukemoid reaction, treatment-related AE ([3]; any grade, N = 66, value is N): 1 N (%)
Melanocytic nevi, treatment-related AE ([3]; any grade, N = 66, value is N): 15 N (%)
Abdominal pain, treatment-emergent AE ([3]; any grade): 15 N (%) and 15 (22.7) N (%)
Anemia, treatment-emergent AE ([3]; any grade): 31 N (%) and 31 (47.0) N (%)
Constipation, treatment-emergent AE ([3]; any grade): 27 N (%) and 27 (40.9) N (%)
Fatigue, treatment-emergent AE ([3]; any grade): 20 (30.3) N (%)
Hyperuricemia, treatment-emergent AE ([3]; any grade): 31 (47.0) N (%)
Increased alanine aminotransferase, treatment-emergent AE ([3]; any grade): 25 N (%) and 25 (37.9) N (%)
Increased aspartate aminotransferase, treatment-emergent AE ([3]; any grade): 31 N (%) and 31 (47.0) N (%)
Increased leukocyte count, treatment-emergent AE ([3]; any grade): 32 N (%) and 32 (48.5) N (%)
Increased neutrophil count, treatment-emergent AE ([3]; any grade): 25 N (%) and 25 (37.9) N (%)
Pyrexia, treatment-emergent AE ([3]; any grade): 28 N (%) and 28 (42.4) N (%)
Abdominal pain, treatment-related AE ([3]; grades 3-5, N = 66, value is N): 1 N (%)
Anemia, treatment-related AE ([3]; grades 3-5, N = 66, value is N): 1 N (%)
Constipation, treatment-related AE ([3]; grades 3-5, N = 66, value is N): 0 N (%)
Coronary sclerosis, treatment-related AE ([3]; grades 3-5, N = 66, value is N): 1 N (%)
Decreased neutrophil count, treatment-related AE ([3]; grades 3-5, N = 66, value is N): 2 N (%)
Fatigue, treatment-related AE ([3]; grades 3-5, N = 66, value is N): 1 N (%)
Hypertension, treatment-related AE ([3]; grades 3-5, N = 66, value is N): 1 N (%)
Hyperuricemia, treatment-related AE ([3]; grades 3-5, N = 66, value is N): 0 N (%)
Hypoalbuminemia, treatment-related AE ([3]; grades 3-5, N = 66, value is N): 0 N (%)
Increased CRP, treatment-related AE ([3]; grades 3-5, N = 66, value is N): 0 N (%)
Increased WBC count, treatment-related AE ([3]; grades 3-5, N = 66, value is N): 0 N (%)
Increased alanine aminotransferase, treatment-related AE ([3]; grades 3-5, N = 66, value is N): 1 N (%)
Increased aspartate aminotransferase, treatment-related AE ([3]; grades 3-5, N = 66, value is N): 1 N (%)
Increased creatinine, treatment-related AE ([3]; grades 3-5, N = 66, value is N): 0 N (%)
Increased neutrophil count, treatment-related AE ([3]; grades 3-5, N = 66, value is N): 0 N (%)
Increased platelet count, treatment-related AE ([3]; grades 3-5, N = 66, value is N): 0 N (%)
Intestinal obstruction, treatment-related AE ([3]; grades 3-5, N = 66, value is N): 1 N (%)
Leukemoid reaction, treatment-related AE ([3]; grades 3-5, N = 66, value is N): 1 N (%)
Melanocytic nevi, treatment-related AE ([3]; grades 3-5, N = 66, value is N): 0 N (%)
Abdominal pain, treatment-emergent AE ([3]; grades 3-5): 1 (1.5) N (%)
Anemia, treatment-emergent AE ([3]; grades 3-5): 4 (6.1) N (%)
Constipation, treatment-emergent AE ([3]; grades 3-5): 0 N (%)
Fatigue, treatment-emergent AE ([3]; grades 3-5): 1 (1.5) N (%)
Hyperuricemia, treatment-emergent AE ([3]; grades 3-5): 1 (1.5) N (%)
Increased alanine aminotransferase, treatment-emergent AE ([3]; grades 3-5): 2 (3.0) N (%)
Increased aspartate aminotransferase, treatment-emergent AE ([3]; grades 3-5): 2 (3.0) N (%)
Increased leukocyte count, treatment-emergent AE ([3]; grades 3-5): 0 N (%)
Increased neutrophil count, treatment-emergent AE ([3]; grades 3-5): 0 N (%)
Pyrexia, treatment-emergent AE ([3]; grades 3-5): 0 N (%)
patients who required treatment interruption ([3]; of 66 patients): 31.8%
RP2D ([3]; on alternate days (QOD)): 40 mg
tolerability ([3]; patients in the phase 1 trial): well tolerated
Anemia, serious treatment-emergent AE [3, 4]: 2 (3.0) N (%)
Intestinal obstruction, serious treatment-emergent AE [3, 4]: 5 (7.6) N (%)
